Test results published in US5607926A, “Cephalosporin antibiotics” (Microcide Pharmaceuticals, Inc., priority 1995, dated 1997).
≈ marks a conversion by molar mass, not a printed value. Where a name gives a salt, the structure may show the parent alone. Read-outs that look alike come from different tables or passages of the source.

Experiments:
[1] = test system: S. aureus 76 (Meth^R)(lac^+); assay: In vitro antibacterial evaluation, MIC by agar dilution, S. aureus 76; type: cell-based; conditions: Staphylococcus aureus, read-out: MIC
How it was run: (§1)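 Agar dilution MIC (μg/mL) on Mueller-Hinton agar following NCCLS: twofold compound series from 128 μg/mL down to ≤0.25 μg/mL, each level in duplicate. Spots of about 10^4 cfu from log-phase cultures were incubated 16-20 h at 35-36 °C. MIC was the lowest concentration inhibiting growth.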

[2] = test system: S. aureus ATCC 25923; assay: In vitro antibacterial evaluation, MIC by agar dilution, S. aureus ATCC 25923; type: cell-based; conditions: Staphylococcus aureus, ATCC25923
How it was run: as §1

[3] = test system: P. aeruginosa ATCC 27853; assay: In vitro antibacterial evaluation, MIC by agar dilution, P. aeruginosa ATCC 27853; type: cell-based; conditions: Pseudomonas aeruginosa, ATCC27853, read-out: MIC
How it was run: as §1

[4] = test system: E. faecalis ATCC 29212; assay: In vitro antibacterial evaluation, MIC by agar dilution, E. faecalis ATCC 29212; type: cell-based; conditions: Enterococcus faecalis, ATCC29212
How it was run: as §1

[5] = test system: S. epidermidis ATCC 31432; assay: In vitro antibacterial evaluation, MIC by agar dilution, S. epidermidis ATCC 31432; type: cell-based; conditions: Staphylococcus epidermidis, ATCC31432
How it was run: as §1

[6] = test system: E. faecium ATCC 35667; assay: In vitro antibacterial evaluation, MIC by agar dilution, E. faecium ATCC 35667; type: cell-based; conditions: Enterococcus faecium, ATCC35667, read-out: MIC
How it was run: as §1

[7] = test system: methicillinsusceptible S. aureus strain ATCC 13709; assay: In vivo antibacterial evaluation, murine model for lethal bacteremic peritonitis; set-up: species or system S. aureus in female Swiss-Webster mice; conditions: Staphylococcus aureus, ATCC13709, sc, 72 h, two equal SC doses at challenge and 2 hours later, mice, probit, read-out: ED50
Method: Groups of 5 female Swiss-Webster mice (Simonsen, Gilroy, Calif.) each are challenged by the intraperitoneal (IP) route with ten-fold increments of a bacterial inoculum. This permits calculation of the mean lethal dose (LD50) and the LD100. For preliminary evaluation of a new antibiotic, mice are challenged IP with an LD100 titer of bacteria. In two equal doses administered at the time of bacterial challenge and 2 hours later, groups of 10 mice each are treated subcutaneously with two-fold increments of the test drug and an antibiotic of known efficacy in mice and humans (i.e., positive control). Mice are observed for 72 h. Those alive at 72 h are considered long term survivors. The total drug dose in mg/kg that protects 50% of mice in a group from death is termed the mean protective dose (PD50). PD50 s are similarly determined for several pathogens. The quantitative endpoints for the new drug are then compared with those obtained with reference antibiotics.
Six ten-fold dilutions of inoculum suspended in 0.5 mL of sterilized 7% hog gastric mucin (Sigma) are injected IP in groups of 5 mice each. A control group of 5 mice receive mucin alone. Mice are observed for 72 h. Those alive at 72 h are considered long term survivors. The mean lethal dose (LD50) and 100% lethal dose (LD100) are determined by the probit test.
For antibiotic efficacy studies, mice are challenged IP with bacterial titers that will afford an LD100 for the test strain. In two equal doses administered at the time of bacterial challenge and 2 hours later, groups of 10 mice each are treated by the subcutaneous route (SC) with twofold increments of the test antibiotic; another group is treated similarly with a reference antibiotic of known efficacy in animals and man. Drug doses can range from 0.01 to 512 mg/kg. If the drug is poorly soluble, Tween 20 or propylene glycol will be employed to solubilize the drug. Animals are observed for 72 h. The 50% protective dose (PD50) is calculated in mg/kg by the probit method. The PD50 is the same as the 50% effective dose (ED50) and the 50% curative dose (CD50). Samples of blood from the hearts of all animals that die and from half the mice that survive are cultured on brain-heart infusion agar. Animals that received a protective dosage of the test drug will be alive at 72 h, although they may appear moderately ill to very ill during the observation period. […] Most of these mice will die within 6 to 48 h. Those alive at 72 h will be considered long term survivors.
(§2) data reported for challenge with methicillinsusceptible S. aureus strain

[8] = test system: E. coli ATCC 25922; assay: In vitro antibacterial evaluation, MIC by agar dilution, E. coli ATCC 25922; type: cell-based; conditions: Escherichia coli, ATCC25922, read-out: MIC
How it was run: as §1

[9] = test system: S. aureus Col8A (Meth^S)(lac^-); assay: In vitro antibacterial evaluation, MIC by agar dilution, S. aureus Col8A; type: cell-based; conditions: Staphylococcus aureus
How it was run: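 Agar dilution per NCCLS (1991): two-fold dilutions from 128 μg/mL down to ≤0.25 μg/mL in Mueller-Hinton agar, each level in duplicate. Spots of about 10^4 cfu of log-phase culture; 16-20 h at 35°-36° C. MIC in μg/ml is the lowest concentration inhibiting growth.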

[10] = test system: methicillinsusceptible S. aureus strain ATCC 13709; assay: Challenge strain MIC; type: cell-based; conditions: Staphylococcus aureus, ATCC13709, S. aureus ATCC 13709; read-out: Challenge str MIC
Method: The compounds of the invention were evaluated against several β-lactamresistant bacteria strains by determining the minimum inhibitory concentration (MIC, μg/ml) of each compound with respect to each strain. The MIC, the lowest concentration of antibiotic which inhibits growth of the test organism, was determined by the agar dilution method.
To determine the MIC for bacterial isolates, the test compound was incorporated in a series of two-fold dilutions into liquified Mueller-Hinton agar. Upon solidification, a number of different bacterial strains were spot inoculated with a replicating device onto the agar surface. […] The procedures used in these studies have been standardized by the National Committee for Clinical Laboratory Standards (NCCLS), as per the NCCLS publication entitled METHODS FOR DILUTION ANTIMICROBIAL SUSCEPTIBILITY TESTS (1991), which is incorporated herein by reference.
Aliquots of antimicrobial agents were prepared in phosphate buffered saline (PBS) at pH 7.2. Tween 20 or DMSO was used as a solubilizing vehicle as needed. Standard methods of vortexing, sonicating and gentle heat were used to facilitate solubilizing the test agent. Typically, the concentration of the stock solution was 10× that of the highest drug concentration tested. A 1.28 mg/mL stock solution was used with a subsequent highest working concentration of 128 μg/mL. Serial two-fold dilutions were done through ≤0.25 μg/mL. Each drug level was tested in duplicate. Two-fold drug dilutions were done in sterile 50 mL tubes with a final drug volume of 5 mL. Upon the addition of 45 mL of molten agar, a 10-fold dilution resulted. Two, 25 mL. plates were then poured into 15×150 mm square Petri plates with grids and allowed to harden.
A control plate with a reference drug, either cefotaxime, vancomycin or imipenem, was used as the positive growth control. Stock concentrations of reference antibiotics were prepared and frozen at -80° C. Upon preparation, the control plates were sealed and stored in the refrigerator for up to 1 week prior to use; however, imipenem control plates had to be prepared just prior to use. All test plates were used within 24 hours of preparation.
Satisfactory results were obtained where the inoculum contained about 10^4 colony forming units (cfu) ±0.5 logs. Starting with pure cultures of the test isolates on agar plates, a few isolated colonies were transferred to a tube of nutrient broth and allowed to grow 4-6 hours at 35°-36° C. to reach log-phase growth. Dropwise addition of the broth culture to PBS was done to match a 0.5 McFarland turbidity standard equal to 10^8 cfu/mL. This was further diluted ten-fold in PBS to reach a working inoculum concentration of 10^7 cfu/mL. When 1 μL of the working inoculum was applied to the agar surface a concentration of about 10^4 cfu per spot was obtained.
Disposable sterile 1 μL loops were used to inoculate test plates, with each isolate in a designated grid on the agar plate. An alternate method of inoculation involved the use of a replica plater, a device with 48 steel pins allowing the simultaneous inoculation of multiple isolates. After the spots had dried, the plates were incubated at 35°-36° C. for 16-20 hours. Endpoints were assessed as the minimum inhibitory concentration (MIC) of antimicrobial agent.
as §2

[11] = test system: S. haemolyticus (Meth^R); assay: In vitro antibacterial evaluation, MIC by agar dilution, S. haemolyticus; type: cell-based; conditions: Staphylococcus haemolyticus, read-out: MIC
How it was run: as §1

[12] = test system: S. aureus ATCC 29213; assay: In vitro antibacterial evaluation, MIC by agar dilution, S. aureus ATCC 29213; type: cell-based; conditions: Staphylococcus aureus, ATCC29213
How it was run: as §1

[13] = E. faecalis ATCC 29212, read-out: MIC
[14] = S. aureus ATCC 29213, read-out: MIC

| SMILES | MIC [1] | MIC [2] | MIC [3] | MIC [4, 13] | MIC [5] | MIC [6] | ED50 [7] | MIC [8] | MIC [9] | MIC [10] | MIC [11] | MIC [12] | MIC [12, 14] | MIC [4] |
| --- | --- | --- | --- | --- | --- | --- | --- | --- | --- | --- | --- | --- | --- | --- |
| O=C(Cc1ccccc1)N[C@@H]1C(=O)N2C(C(=O)O)=C(Sc3ccnn3-c3ccccc3)CS[C@H]12 [Cmpd 87, (7R)-7-[(Phenylacetyl)amino]-3-(1-N-phenylpyrazol-5-ylthio)-3-cephem-4-carboxylic acid] | 4 µg/mL (≈ 8.12 µM) | < 0.25 µg/mL | > 32 µg/mL | 2 µg/mL (≈ 4.06 µM) | < 0.25 µg/mL | 1 to 2 µg/mL (≈ 2.03 to 4.06 µM) | 1.89 mg/kg | > 32 µg/mL | < 0.25 µg/mL | 0.06 µg/mL (≈ 0.122 µM) | 16 µg/mL (≈ 32.5 µM) |  |  |  |
| N#CCC(=O)N[C@@H]1C(=O)N2C(C(=O)O)=C(Sc3ccccc3I)CS[C@H]12 [Cmpd 17, (7R)-7-[(Cyanoacetyl)amino]-3-(o-iodophenylthio)-3-cephem-4-carboxylic acid] | 4 µg/mL (≈ 7.98 µM) |  |  |  | < 0.25 µg/mL | 1 µg/mL (≈ 1.99 µM) | 3.41 mg/kg | > 64 µg/mL | < 0.25 µg/mL | 0.125 µg/mL (≈ 0.249 µM) | 8 µg/mL (≈ 16 µM) | < 0.25 µg/mL |  |  |
| O=C(CC1CC1)N[C@@H]1C(=O)N2C(C(=O)O)=C(Sc3ccnn3-c3ccccc3)CS[C@H]12 [Cmpd 107, (7R)-7-[(cyclopropylacetyl)amino]-3-(1-N-phenylpyrazol-5-ylthio)-3-cephem-4-carboxylic acid] | 16 µg/mL (≈ 35 µM) |  | > 32 µg/mL | 8 µg/mL (≈ 17.5 µM) |  | 8 µg/mL (≈ 17.5 µM) | 1.58 mg/kg | > 32 µg/mL | 0.25 µg/mL (≈ 0.548 µM) | 0.125 µg/mL (≈ 0.274 µM) | 32 µg/mL (≈ 70.1 µM) | 0.25 µg/mL (≈ 0.548 µM) |  |  |
| O=C(O)C1=C(Sc2ccnn2-c2ccccc2)CS[C@@H]2[C@H](NC(=O)/C(=N\O)c3ccccc3)C(=O)N12 [Cmpd 130, (7R)-7-[(Z)-2-(Phenyl)-2-(hydroxyimino)acetamido]-3-(1-N-(phenyl)pyrazol-5-ylthio)-3-cephem-4-carboxylic acid] | 4 µg/mL (≈ 7.67 µM) |  | > 32 µg/mL |  |  | 0.5 µg/mL (≈ 0.959 µM) | > 10 mg/kg | > 32 µg/mL | 0.25 µg/mL (≈ 0.479 µM) | 0.125 µg/mL (≈ 0.24 µM) | 4 µg/mL (≈ 7.67 µM) |  | 0.125 µg/mL (≈ 0.24 µM) | 0.25 µg/mL (≈ 0.479 µM) |
| Cc1nnc(SCC(=O)N[C@@H]2C(=O)N3C(C(=O)O)=C(Sc4ccnn4-c4ccccc4)CS[C@H]23)s1 [Cmpd 118] | 8 µg/mL (≈ 14.6 µM) |  | > 32 µg/mL | 4 µg/mL (≈ 7.32 µM) |  | 4 µg/mL (≈ 7.32 µM) | 3.38 mg/kg | > 32 µg/mL | 0.125 µg/mL (≈ 0.229 µM) | 0.06 µg/mL (≈ 0.11 µM) | 32 µg/mL (≈ 58.5 µM) |  | 0.25 µg/mL (≈ 0.457 µM) |  |
| N=C(N)SCc1ccc(CC(=O)N[C@@H]2C(=O)N3C(C(=O)O)=C(Sc4ccccc4CSC(=N)N)CS[C@H]23)cc1 [Cmpd 97, (7R)-7-[((4-isothiouroniummethylphenyl)acetyl)amino]-3-(2-isothiouroniummethylphenylthio)-3-cephem-4-carboxylate, trifluoroacetic acid salt] | 4 µg/mL |  | > 32 µg/mL | 0.5 µg/mL |  | 1 µg/mL | 0.74 mg/kg | > 32 µg/mL | 0.125 µg/mL | 0.062 µg/mL | 8 µg/mL |  | 0.06 µg/mL |  |
| O=C(Cc1ccccc1)N[C@@H]1C(=O)N2C(C(=O)O)=C(Sc3cccnc3-n3cccn3)CS[C@H]12 [Cmpd 103, (7R)-7-[(Phenylacetyl)amino]-3-(2-(pyrazol-1-yl)pyridin-3-ylthio)-3-cephem-4-carboxylic acid] | 8 µg/mL (≈ 16.2 µM) |  | > 32 µg/mL | 1 µg/mL (≈ 2.03 µM) |  | 2 µg/mL (≈ 4.05 µM) | 2.67 mg/kg | > 32 µg/mL | 0.25 µg/mL (≈ 0.507 µM) | 0.125 µg/mL (≈ 0.253 µM) | 4 µg/mL (≈ 8.1 µM) | 0.25 µg/mL (≈ 0.507 µM) |  |  |
